Assay results from ChEMBL document CHEMBL3822454, “On the vasoprotective mechanisms underlying novel β-phosphorylated nitrones: Focus on free radical characterization, scavenging and NO-donation in a biological model of oxidative stress” (Eur J Med Chem, 2016).
pEC50, pIC50: −log10 of the molar value. Calls of active or inactive are those of the source. No cut-off for these calls is given here.

Key:
[1] = Cytotoxicity against BAECs assessed as decrease in total intracellular LDH content at 15 mM measured after 3 hrs by LDH assay relative to vehicle control; assay type: cell-based, Bos taurus; set-up: scale not given: the % may be the effect or the level left; conditions: cattle, baec, 15000 µM
Aorta [2] = assay: Potentiation of SNP-induced vasorelaxant activity in Sprague-Dawley rat endothelium-intact aortic rings assessed as reduction in L-phenylephrine hydrochloride-induced contraction at 200 uM relative to SNP; assay type: functional
Aorta [3] = assay: (§1) Vasoprotective activity against oxidative stress-induced impairment of ACh-stimulated vasorelaxation in Sprague-Dawley rat endothelium-intact aortic rings assessed as reduction in L-phenylephrine hydrochloride-induced contraction preincubated for 10 to 20 mins in presence of xanthine-xanthine oxidase system prior to L-phenylephrine hydrochloride addition; assay type: functional
Aorta [4] = assay: as §1, with “system at 200 uM” for “system”, “addition relative to ACh” for “addition”; assay type: functional
Aorta [5] = assay: Protection against NADPH-induced superoxide-mediated tissue damage in Sprague-Dawley rat endothelium-intact aortic rings assessed as inhibition of protein carbonyl formation at 200 uM pre-incubated for 30 mins in presence of DTC prior to NADPH addition measured after 60 mins using 7-hydrazino-4-nitrobenzo-2,1,3-oxadiazole by fluorimetric analysis; assay type: functional
Aorta [6] = assay: (§2) Protection against NADPH-induced superoxide-mediated tissue damage in Sprague-Dawley rat endothelium-intact aortic rings assessed as decomposition of methyl radical adduct preincubated for 30 mins at 200 uM in presence of DTC prior to NADPH addition after 60 mins followed by renewal of media with NADPH-compound mixture measured after 4 days by EPR spectroscopy relative to control; assay type: functional
A549 [7] = assay: Cytotoxicity against human A549 cells assessed as reduction in cell viability measured after 24 hrs by MTT assay; assay type: cell-based; conditions: a549, 24 h
[8] = Antioxidant activity assessed as DPPH scavenging activity measured after 3 mins by spectrophotometric method; assay type: physicochemical
[9] = Antioxidant activity assessed as AAPH free radical scavenging activity measured as trolox equivalent by TRAP assay; assay type: physicochemical
[10] = Antioxidant activity assessed as inhibition of […]-xanthine oxidase system-mediated superoxide formation measured over 7 mins by lucigenin-based chemiluminescence analysis; assay type: physicochemical
A549 [11] = assay: Cytotoxicity against human A549 cells assessed as reduction in cell viability measured after 48 hrs by FMCA assay; assay type: cell-based; conditions: A549, 48 h
A549 [12] = assay: Cytotoxicity against human A549 cells assessed as reduction in cell viability measured after 48 hrs by luminescence-based ATP assay; conditions: A549, 48 h
A549 [13] = assay: Cytotoxicity against human A549 cells assessed as reduction in cell viability measured after 48 hrs by MTT assay; assay type: cell-based; conditions: A549, 48 h
[14] = Cytotoxicity against BAEC assessed as reduction in cell viability measured after 24 hrs by MTT assay; set-up: species or system Bos taurus; conditions: cattle
Aorta [15] = assay: Protection against superoxide-mediated tissue damage in Sprague-Dawley rat endothelium-intact aortic rings assessed as methyl radical adduct formation preincubated for 30 mins at 200 uM in presence of DTC measured after 4 days by EPR spectroscopy; assay type: functional
[16] = Cytotoxicity against BAEC assessed as decrease in total intracellular LDH content at 15 mM measured after 1 hr by LDH assay relative to vehicle-treated control; assay type: cell-based, Bos taurus; set-up: scale not given: the % may be the effect or the level left; conditions: cattle, 15000 µM
Aorta [17] = assay: Toxicity in Sprague-Dawley rat endothelium-intact aortic rings at 15 mM measured after 20 mins; conditions: 15000 µM
Aorta [18] = assay: as §2, with “as” for “as decomposition of”, “formation pre-incubated” for “preincubated”, “addition measured” for “addition”, “20 mins in presence of DPI” for “4 days”, “spectroscopy” for “spectroscopy relative to control”; assay type: functional
[19] = target: Xanthine dehydrogenase/oxidase (Homo sapiens, UniProt P47989); assay: Inhibition of xanthine oxidase (unknown origin) using xanthine as substrate assessed as inhibition of uric acid formation at 1 to 100 uM after 30 mins by spectrophotometric method; conditions: 0.5 h
[20] = Cytotoxicity against BAECs assessed as reduction in cell viability measured after 24 hrs by neutral red assay; conditions: Bos taurus, BAEC
[21] = Induction of nitric oxide release in water using Fe2+-MGD2 as nitric oxide trap at pH 6.56 measured 70 mins post UV-photolysis in dark condition by EPR spectroscopy; assay type: physicochemical; conditions: buffer, pH 6.56, 70 min
[22] = Half life of the compound in phosphate buffer at pH 6 by UV-illumination; assay type: ADME
[23] = Induction of nitric oxide release in water using Fe2+-MGD2 as nitric oxide trap at pH 6.56 incubated in ambient light for 4.5 hrs by EPR spectroscopy; assay type: physicochemical; conditions: buffer, pH 6.56, 4.5 h

Sequence of Xanthine dehydrogenase/oxidase (P47989 whole entry): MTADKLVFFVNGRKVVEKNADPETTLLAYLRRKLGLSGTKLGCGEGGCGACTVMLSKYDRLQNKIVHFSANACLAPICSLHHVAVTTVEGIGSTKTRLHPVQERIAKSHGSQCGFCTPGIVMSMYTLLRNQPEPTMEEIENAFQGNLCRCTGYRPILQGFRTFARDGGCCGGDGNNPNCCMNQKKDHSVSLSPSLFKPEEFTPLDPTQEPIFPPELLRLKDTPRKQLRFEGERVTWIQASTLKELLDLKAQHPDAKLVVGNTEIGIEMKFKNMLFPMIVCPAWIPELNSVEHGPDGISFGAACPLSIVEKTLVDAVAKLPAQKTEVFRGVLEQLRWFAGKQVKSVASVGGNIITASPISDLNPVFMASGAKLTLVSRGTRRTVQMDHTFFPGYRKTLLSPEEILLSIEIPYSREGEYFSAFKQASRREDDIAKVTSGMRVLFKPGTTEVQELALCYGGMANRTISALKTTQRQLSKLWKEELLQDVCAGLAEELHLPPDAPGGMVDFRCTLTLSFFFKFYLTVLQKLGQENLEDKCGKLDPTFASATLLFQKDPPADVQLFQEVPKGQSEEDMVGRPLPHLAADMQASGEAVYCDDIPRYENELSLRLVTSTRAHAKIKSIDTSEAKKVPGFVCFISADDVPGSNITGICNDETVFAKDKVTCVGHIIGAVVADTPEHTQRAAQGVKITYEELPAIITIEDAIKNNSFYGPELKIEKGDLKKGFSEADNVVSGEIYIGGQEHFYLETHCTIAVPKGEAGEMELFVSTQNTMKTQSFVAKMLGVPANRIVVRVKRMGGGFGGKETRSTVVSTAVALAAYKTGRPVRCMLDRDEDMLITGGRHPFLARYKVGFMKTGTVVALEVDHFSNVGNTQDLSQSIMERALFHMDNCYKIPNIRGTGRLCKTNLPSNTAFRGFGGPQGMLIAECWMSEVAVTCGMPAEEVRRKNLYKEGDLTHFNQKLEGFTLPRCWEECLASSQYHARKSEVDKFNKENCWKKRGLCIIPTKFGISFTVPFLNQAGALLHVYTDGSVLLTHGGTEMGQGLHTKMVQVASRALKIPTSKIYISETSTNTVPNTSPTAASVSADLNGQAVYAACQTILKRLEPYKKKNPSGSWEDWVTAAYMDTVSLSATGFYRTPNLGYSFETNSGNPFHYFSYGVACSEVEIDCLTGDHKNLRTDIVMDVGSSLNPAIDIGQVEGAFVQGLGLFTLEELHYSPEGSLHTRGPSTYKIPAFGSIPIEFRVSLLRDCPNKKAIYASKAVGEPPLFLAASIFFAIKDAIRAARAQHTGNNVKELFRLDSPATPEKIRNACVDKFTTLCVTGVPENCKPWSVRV

Row | Compound | Activity [1] [%] | Rmax (Aorta [2]) [%] | pEC50 (Aorta [3]) | Rmax (Aorta [4]) [%] | inhibition (Aorta [5]) | Activity (Aorta [6]) [%] | IC10 (A549 [7]) [mM] | pEC50 [8] | Activity [9] [equiv] | pIC50 [10] | pIC50 (A549 [11]) | pIC50 (A549 [12]) | pIC50 (A549 [13]) | IC10 [14] [mM] | Activity [21] | other results
1 | CCOP(=O)(OCC)C(C)(C)/[N+]([O-])=C/c1ccccc1 | 19 | 100 | 6.83 | 75 | Active | 30 | 4.9 | < 3.00 | 0.02 | 3.43 | 1.90 | 1.97 | 1.91 | 1.1 | – | –
2 | CCOP(=O)(OCC)C(C)(C)/[N+]([O-])=C/c1cc(OC)c(O)c(OC)c1 | 8 | 101 | 7.17 | 77 | Active | < 5 | 6.1 | 3.72 | 1.44 | 4.14 | 1.92 | 1.83 | 1.82 | 2.6 | – | Activity (Aorta [15]): inactive; Activity [16]: < 10%; Activity (Aorta [17]): Non-toxic; Activity (Aorta [18]): inactive; inhibition (INH) [19]: Not Active
3 | CC(C)(C)/[N+]([O-])=C/c1ccccc1 | 10 | 98 | 6.76 | 62 | inactive | 25 | 5.1 | < 3.00 | 0.02 | < 2.40 | 1.94 | 2.02 | 1.97 | 2.4 | Not Active | pIC50 [20]: 2.03
4 | CC(C)(C)N([O])C(O)c1ccccc1 (configuration not stated) | – | – | – | – | – | – | – | – | – | – | – | – | – | – | – | half-life [22]: 1.5 min
5 | CCOP(=O)(OCC)C(C)(C)/[N+]([O-])=C/c1ccc(Cl)cc1 | – | – | – | – | – | – | – | – | – | – | – | – | – | – | Active | Activity [23]: Active
